Tests used:
Assay type in all cases: cell-based
[1] = test system: Ramos cells; test: MTT cell viability assay, Ramos cells, 48 hours (Example 1)
[2] = test system: Ramos (Burkitt's lymphoma) cell line; test: Cell viability assay, fraction of cells affected (fa), Ramos
Description: (§1) FIGS. 5(a)-(d) are a series of bar graphs summarizing results for in vitro treatment of cancer cell lines with free bivalent or liposomal multivalent Ab constructs. […] Fraction of cells affected (fa) was calculated as follows: fa=1−fu, where fu was the fraction of remaining viable cells calculated as the ratio of the absorbance readings from the MTT assay for treated and untreated groups. Data represent mean ±S.E.M. from 3 independent experiments. * and ^# denote P<0.05 as compared to the free Ab treatment (ANOVA and Scheffe test for post-hoc comparisons).
(§2) Cells (3,500 cells/well for LCC6^HER2 and MCF7^HER2, and 20-50,000 cells/well for Ramos and 20,000 cells/well for Z-138) were seeded in 96-well plates. In the case of LCC6^HER2 and MCF7^HER2 cells, treatment was added after an overnight incubation to allow cell adherence to plates. In the case of Ramos and Z-138 cells, treatment was added on the same day after seeding. Cell viability was determined using 3-(4,5-dimethylthiazol-2-yl)-2,5-diphenyltetrazolium bromide (MTT) as previously described ^28 or Alamar Blue added in 10 μL/well with an 18-h incubation before reading fluorescence in a Fluorstar (v 1.2) plate reader (BMG Labtechnologies, Offenburg, Germany).
(§3) For rituximab, testing was conducted in a Burkitt's lymphoma cell line, Ramos (FIG. 5c), and a mantle cell lymphoma cell line, Z-138 (FIG. 5d).

[3] = test system: Z-138 cells; test: Cell cycle analysis and DAPI staining, Z-138; settings: 15 μg/mL, 3 days
Description: (§4) FIGS. 6(a)-6(b) are bar graphs and Western blot analyses showing modulation of cancer cell survival pathways by multivalent liposomal Ab constructs. […] The concentration of trastuzumab was 200 μg/mL. (b) Representative cell cycle analysis, DAPI staining and Western blot analyses of Z-138 cells after exposure to free or liposomal rituximab for 3 days. The concentration of rituximab was 15 μg/mL. […] For DAPI staining, yellow arrows indicate apoptotic morphology of DNA condensation or fragmentation associated with Z-138 cells exposed to various treatments. The scale bar is equivalent to 50 μm, and all images are shown at the same magnification.
Cells were harvested after treatment and fixed in cold 70% ethanol adjusted to 1×10^6 cells/mL and 2×10^6 cells/mL for cell cycle analyses and DAPI staining, respectively. In the case of cell cycle analyses, cells were stained in propidium iodide (PI) buffer [50 μg/mL PI, 1 mg/mL RNase A (Sigma), and 0.1% Triton X-100 in PBS] at 37° C. for 15 min as previously described ^28. Cells were then chilled on ice for 1 h and analyzed on a FACSCalibur flow cytometer (Becton Dickinson, San Jose, Calif.) with 20,000 events collected for each sample. In the case of DAPI staining, cells were incubated in DAPI staining solution (0.1 μg/mL DAPI, 1 mg/mL RNase A and 0.1% Triton X-100 in PBS) for 15 min, followed by chilling on ice for 30 min. Cells were cytospun onto a glass slide, and viewed with a Leica DMLB fluorescence microscope. Images were captured with a Retiga 1300i digital camera and analyzed by the computer software OpenLab 3.5.1 (Improvision).

[4] = test system: phosphorylated p65NF-κB, Bcl-xL, Bcl-2, Bax, p-Akt; test: Western blot analyses of cell survival molecules, Z-138; settings: 15 μg/mL, 3 days
Description: as §4
The following antibodies were used in this study: anti-p-HER2-Tyr-1248/Tyr-1173; anti-HER2; anti-p-Akt-Ser-473 and anti-Akt (all were rabbit polyclonal, New England Biolabs) and anti-human β-actin (mouse monoclonal, Sigma). The secondary antibody was horseradish peroxidase-conjugated anti-mouse or anti-rabbit IgG (Promega, Madison, Wis.). Proteins were detected by enhanced chemiluminescence (Amersham Pharmacia Biotech, Buckinghamshire, England), and visualized after exposure to Kodak autoradiography film. Equivalent amounts of protein (30 μg/lane determined by Bradford assay) were resolved by 12% SDS-polyacrylamide pre-made gels (Bio-Rad).

[5] = test system: Z-138 (mantle cell lymphoma) cell line; test: Cell viability assay, fraction of cells affected (fa), Z-138
Description: as §1, §2, §3

[6] = test system: caspase 3/7; test: Caspase 3/7 activity, Z-138; settings: Z-138 cells, data not shown
[7] = 3 days, 10% serum, range of Ab concentrations tested

Row | Substance | potency / cytotoxic activity on cell viability (MTT assay), in words [1] | apoptosis: percentage of cells in sub-G1/G0 phase, morphology (DAPI) [3] | expression levels of phosphorylated p65NF-κB and downstream Bcl-xL [4] | also measured
1 | Lipo-RTX 59: Rituximab bound to liposomes at antibody-to-lipid ratio of 59 μg antibody/μmol lipid | superior potency to free Rituximab |  |  | 
2 | cross-linked rituximab: Free rituximab cross-linked by an anti-human IgG F(ab)′ (goat F(ab′)2 anti-human IgG, 50 μg/mL), included as a control |  | increases | reduced | activity (fa) compared to liposomal rituximab, in words ([2]; Ab concentrations above 10 μg/mL, P<0.05): more effective than liposomal rituximab; expression level of p-Akt [4]: capable of reducing
3 | Lipo-RTX 48: Rituximab bound to liposomes at antibody-to-lipid ratio of 48 μg antibody/μmol lipid | superior potency to free Rituximab |  |  | 
4 | liposomal rituximab: rituximab conjugated to DSPC/CHOL/DSPE-PEG2000/DSPE-PEG2000-MAL liposomes, Ab-to-lipid ratio 50-70 μg/μmol |  | increases | reduced | activity (fa) compared to free rituximab, in words [2, 7]: significantly more effective than the free, bivalent form; activity (fa) compared to free rituximab, in words [5, 7]: significantly more effective than the free, bivalent form; activity (fa) compared to cross-linked rituximab, in words ([5]; P>0.05): not significantly different from that of cross-linked rituximab; increase in caspase 3/7 activity [6]: not
5 | free rituximab: a therapeutic antibody targeting CD20; anti CD20 monoclonal antibody | minimal or no cytotoxic activity | not different from untreated cells | not different from untreated cells | 
